Experimental data from patent US10463710B2, “Short synthetic peptide for the treatment and/or prophylaxis of autoimmune and inflammatory disorders” (MacKay Memorial Hospital, priority 2015, dated 2019).
Entries after “also recorded” stand apart in the source; their conditions may differ. Ends that are not written are not given here.

What was measured:
in vitro = format: cell-based, murine; conditions: mouse
[1] = tested on: Raw264.7 macrophage cells; test: in vitro; format: cell-based, murine; conditions: Example 1 results

CC(=O)N[C@@H](Cc1ccccc1)C(=O)N[C@@H](CC(C)C)C(=O)N[C@@H](Cc1ccc(O)cc1)C(=O)N[C@@H](CCCNC(=N)N)C(=O)N[C@H](C(=O)N[C@@H](CCCNC(=N)N)C(=O)N[C@@H](CO)C(N)=O)C(C)C [7-mer (D→F), NH2-Phe-Leu-Tyr-Arg-Val-Arg-Ser-COOH]
viability at 24 h, 20 μM (in vitro; Raw264.7 cell viability): 61.9 ± 4.91%
bioactivity / inhibitory activity relative to 7-mer (in words) [1]: could sustain 7-mer bioactivity, only partly; also recorded: relatively the same bioactivity that is similar to the 7-mer

CC(=O)N[C@@H](CC(C)C)C(=O)N[C@@H](CC(C)C)C(=O)N[C@@H](Cc1ccc(O)cc1)C(=O)N[C@@H](CCCNC(=N)N)C(=O)N[C@H](C(=O)N[C@@H](CCCNC(=N)N)C(=O)N[C@@H](CO)C(N)=O)C(C)C [7-mer (D→L), NH2-Leu-Leu-Tyr-Arg-Val-Arg-Ser-COOH]
viability at 24 h, 20 μM (in vitro; Raw264.7 cell viability): 57.6 ± 2.65%
bioactivity / inhibitory activity relative to 7-mer (in words) [1]: could sustain 7-mer bioactivity, only partly; also recorded: relatively the same bioactivity that is similar to the 7-mer

CC(=O)N[C@H](C(=O)N[C@@H](CC(C)C)C(=O)N[C@@H](Cc1ccc(O)cc1)C(=O)N[C@@H](CCCNC(=N)N)C(=O)N[C@H](C(=O)N[C@@H](CCCNC(=N)N)C(=O)N[C@@H](CO)C(N)=O)C(C)C)C(C)C [7-mer (D→V), NH2-Val-Leu-Tyr-Arg-Val-Arg-Ser-COOH]
viability at 24 h, 20 μM (in vitro; Raw264.7 cell viability): 56.8 ± 3.53%
bioactivity / inhibitory activity relative to 7-mer (in words) [1]: relatively the same bioactivity that is similar to the 7-mer
bioactivity / inhibitory activity relative to 7-mer (in words) ([1]; listed as 7-mer (D→N)): could sustain 7-mer bioactivity, only partly

CC(=O)N[C@@H](CC(=O)O)C(=O)N[C@@H](CC(C)C)C(=O)N[C@@H](Cc1ccc(O)cc1)C(=O)N[C@@H](CCCNC(=N)N)C(=O)N[C@H](C(=O)N[C@@H](CCC(N)=O)C(=O)N[C@@H](CO)C(N)=O)C(C)C [7-mer (R2→Q), NH2-Asp-Leu-Tyr-Arg-Val-Gln-Ser-COOH]
viability at 24 h, 20 μM (in vitro; Raw264.7 cell viability): 68.4 ± 1.25%
bioactivity / inhibitory activity relative to 7-mer (in words) [1]: could sustain 7-mer bioactivity, only partly

CC(=O)N[C@@H](CC(=O)O)C(=O)N[C@@H](CC(C)C)C(=O)N[C@@H](Cc1ccc(O)cc1)C(=O)N[C@@H](CCCNC(=N)N)C(=O)N[C@@H](CC(C)C)C(=O)N[C@@H](CCCNC(=N)N)C(=O)N[C@@H](CO)C(N)=O [7-mer (V→L), NH2-Asp-Leu-Tyr-Arg-Leu-Arg-Ser-COOH]
viability at 24 h, 20 μM (in vitro; Raw264.7 cell viability): 61.1 ± 3.96%
bioactivity / inhibitory activity relative to 7-mer (in words) [1]: could sustain 7-mer bioactivity, only partly; also recorded: relatively the same bioactivity that is similar to the 7-mer

CC(=O)N[C@H](CC(=O)O)C(=O)N[C@@H](CC(C)C)C(=O)N[C@@H](Cc1ccc(O)cc1)C(=O)N[C@@H](CCCNC(=N)N)C(=O)N[C@H](C(=O)N[C@@H](CCCNC(=N)N)C(=O)N[C@@H](CO)C(N)=O)C(C)C [7-mer DD, NH2-(D-Asp)-Leu-Tyr-Arg-Val-Arg-Ser-COOH]
viability at 24 h, 20 μM (in vitro; Rar264.7 cell viability): 52.1 ± 1.45%

CC(=O)N[C@@H](CC(=O)O)C(=O)N[C@H](CC(C)C)C(=O)N[C@@H](Cc1ccc(O)cc1)C(=O)N[C@@H](CCCNC(=N)N)C(=O)N[C@H](C(=O)N[C@@H](CCCNC(=N)N)C(=O)N[C@@H](CO)C(N)=O)C(C)C [7-mer DL, NH2-Asp-(D-Leu)-Tyr-Arg-Val-Arg-Ser-COOH]
viability at 24 h, 20 μM (in vitro; Rar264.7 cell viability): 101 ± 1.48%
bioactivity / inhibitory activity relative to 7-mer (in words) [1]: lose its biological activity

CC(=O)N[C@@H](CC(=O)O)C(=O)N[C@@H](CC(C)C)C(=O)N[C@@H](Cc1ccc(O)cc1)C(=O)N[C@@H](CCCNC(=N)N)C(=O)N[C@H](C(=O)N[C@H](CCCNC(=N)N)C(=O)N[C@@H](CO)C(N)=O)C(C)C [7-mer DR2, NH2-Asp-(D-Leu)-Tyr-Arg-Val-(D-Arg)-Ser-COOH]
viability at 24 h, 20 μM (in vitro; Rar264.7 cell viability): 103 ± 2.51%
bioactivity / inhibitory activity relative to 7-mer (in words) [1]: lose its biological activity

CC(=O)N[C@@H](CC(=O)O)C(=O)N[C@@H](CC(C)C)C(=O)N[C@@H](Cc1ccc(O)cc1)C(=O)N[C@H](CCCNC(=N)N)C(=O)N[C@H](C(=O)N[C@@H](CCCNC(=N)N)C(=O)N[C@@H](CO)C(N)=O)C(C)C [7-mer DR, NH2-Asp-Leu-Tyr-(D-Arg)-Val-Arg-Ser-COOH]
viability at 24 h, 20 μM (in vitro; Rar264.7 cell viability): 100 ± 2.58%
bioactivity / inhibitory activity relative to 7-mer (in words) [1]: lose its biological activity

CC(=O)N[C@@H](CC(=O)O)C(=O)N[C@@H](CC(C)C)C(=O)N[C@@H](Cc1ccc(O)cc1)C(=O)N[C@@H](CCCNC(=N)N)C(=O)N[C@H](C(=O)N[C@@H](CCCNC(=N)N)C(=O)N[C@H](CO)C(N)=O)C(C)C [7-mer DS, NH2-Asp-Leu-Tyr-Arg-Val-Arg-(D-Ser)-COOH]
viability at 24 h, 20 μM (in vitro; Rar264.7 cell viability): 107 ± 2.23%
bioactivity / inhibitory activity relative to 7-mer (in words) [1]: lose its biological activity

CC(=O)N[C@@H](CC(=O)O)C(=O)N[C@@H](CC(C)C)C(=O)N[C@@H](Cc1ccc(O)cc1)C(=O)N[C@@H](CCCNC(=N)N)C(=O)N[C@@H](C(=O)N[C@@H](CCCNC(=N)N)C(=O)N[C@@H](CO)C(N)=O)C(C)C [7-mer DV, NH2-Asp-Leu-Tyr-Arg-(D-Val)-Arg-Ser-COOH]
viability at 24 h, 20 μM (in vitro; Rar264.7 cell viability): 57.9 ± 6.2%

CC(=O)N[C@@H](CC(=O)O)C(=O)N[C@@H](CC(C)C)C(=O)N[C@H](Cc1ccc(O)cc1)C(=O)N[C@@H](CCCNC(=N)N)C(=O)N[C@H](C(=O)N[C@@H](CCCNC(=N)N)C(=O)N[C@@H](CO)C(N)=O)C(C)C [7-mer DY, NH2-Asp-Leu-(D-Tyr)-Arg-Val-Arg-Ser-COOH]
viability at 24 h, 20 μM (in vitro; Rar264.7 cell viability): 107.5 ± 0.63%
bioactivity / inhibitory activity relative to 7-mer (in words) [1]: lose its biological activity

CC(=O)N[C@@H](CC(=O)O)C(=O)N[C@@H](CC(C)C)C(=O)N[C@@H](Cc1ccc(O)cc1)C(=O)N[C@@H](CCCNC(=N)N)C(=O)N[C@H](C(=O)N[C@@H](C)C(=O)N[C@@H](CO)C(N)=O)C(C)C [7-mer R2a, NH2-Asp-Leu-Tyr-Arg-Val-Ala-Ser-COOH]
viability at 24 h, 20 μM (in vitro; Raw264.7 cell viability): 94.6 ± 1.65%

CC(=O)N[C@@H](CC(=O)O)C(=O)N[C@@H](CC(C)C)C(=O)N[C@@H](Cc1ccc(O)cc1)C(=O)N[C@@H](C)C(=O)N[C@H](C(=O)N[C@@H](CCCNC(=N)N)C(=O)N[C@@H](CO)C(N)=O)C(C)C [7-mer Ra, NH2-Asp-Leu-Tyr-Ala-Val-Arg-Ser-COOH]
viability at 24 h, 20 μM (in vitro; Raw264.7 cell viability): 99.5 ± 1.51%

CC(=O)N[C@@H](CC(=O)O)C(=O)N[C@@H](CC(C)C)C(=O)N[C@@H](Cc1ccc(O)cc1)C(=O)N[C@@H](CCCNC(=N)N)C(=O)N[C@H](C(=O)N[C@@H](CCCNC(=N)N)C(=O)N[C@@H](C)C(N)=O)C(C)C [7-mer Sa, NH2-Asp-Leu-Tyr-Arg-Val-Arg-Ala-COOH]
viability at 24 h, 20 μM (in vitro; Raw264.7 cell viability): 93.1 ± 2.47%

CC(=O)N[C@@H](CC(=O)O)C(=O)N[C@@H](CC(C)C)C(=O)N[C@@H](Cc1ccc(O)cc1)C(=O)N[C@@H](CCCNC(=N)N)C(=O)N[C@@H](C)C(=O)N[C@@H](CCCNC(=N)N)C(=O)N[C@@H](CO)C(N)=O [7-mer Va, NH2-Asp-Leu-Tyr-Arg-Ala-Arg-Ser-COOH]
viability at 24 h, 20 μM (in vitro; Raw264.7 cell viability): 97.7 ± 0.6%

CC(=O)N[C@@H](CC(=O)O)C(=O)N[C@@H](CC(C)C)C(=O)N[C@@H](C)C(=O)N[C@@H](CCCNC(=N)N)C(=O)N[C@H](C(=O)N[C@@H](CCCNC(=N)N)C(=O)N[C@@H](CO)C(N)=O)C(C)C [7-mer Ya, NH2-Asp-Leu-Ala-Arg-Val-Arg-Ser-COOH]
viability at 24 h, 20 μM (in vitro; Raw264.7 cell viability): 97.6 ± 0.56%

NH2-Asp-Leu-Tyr-Arg-Val-Arg-COOH (DLYRVR; not fully specified (N-terminus, C-terminus); printed as NH2-Asp-Leu-Tyr-Arg-Val-Arg-COOH) [control peptide, serine residue of the 7-mer deleted, reference compound]
bioactivity / inhibitory activity relative to 7-mer (in words) [1]: does not possess any biological function
